Measurements: patent US11959929B2, “Method of quantifying lysergic acid diethylamide (LSD) and 2,3-dihydro-3-hydroxy-2-oxo lysergide (O-H-LSD) in human plasma” (Universitatsspital Basel, priority 2020, dated 2024)
Where “and” joins values, the source holds several entries; their conditions need not be identical. Identical values can stand only once.

Columns and labels:
[1] = Freeze/thaw stability tests in human plasma (three cycles, about −20° C.); type: physicochemical; conditions: for Change in concentration [%]: 3 F/T cycles vs Baseline; for Accuracy: single QC replicate
Excerpt: (§1) Each analyte had to be stable in human plasma for at least three freeze-thaw cycles (for repeated sample preparations) and at ambient temperature for at least eight hours (maximal duration of sample preparation). Measured samples should be stable for a second injection when the first analytical run was not valid. The analytes had to be stable in the matrix at the intended storage temperatures and study duration.
(§2) An analyte was considered stable at one of the above tests when no increase or decrease of the analyte concentration of more than 15% for the mean of at least three analyzed QC samples at low, medium and at high concentration was observed.
Seven of each LLOQ, QCLOW, QCMID, QCHIGH, and ULOQ sample in human plasma were stored at about −20° C. for at least 24 hours and thawed unassisted at ambient temperature. When completely thawed, the samples were refrozen for at least 12 hours under the same conditions. The freeze-thaw cycle was repeated two more times. After the third cycle the samples were worked up and analyzed. The concentrations in the frozen and thawed samples were compared with freshly processed QC samples. Concentrations were calculated based on two freshly prepared CALs measured at the beginning and the other at the end of the validation run.

[2] = Reinjection reproducibility of worked-up plasma samples (overnight at 10° C. in autosampler; 1 week at −20° C.); type: physicochemical, human; conditions: for Change in concentration: 1 night at 10° C. in the autosampler vs Baseline; for Change in concentration [%]: 8 days at −20° C. vs Baseline; for Accuracy: single QC replicate
Excerpt: as §1, §2
Worked-up and measured Cal and QC samples (prepared in human plasma) of a valid run were repeatedly analyzed. Reinjection was performed after overnight storage at 10° C. (autosampler) and after 1-week storage at −20° C. The run was checked according to the acceptance criteria for validation runs. The calculated mean values for QC samples were compared between the original and reinjected run.

[3] = Clinical application: plasma concentration-time profile of LSD and O-H-LSD after a single oral 5 μg LSD dose in healthy volunteers; type: in vivo, human; conditions: three healthy volunteers
Description: To examine the application of the developed method, LSD and O-H-LSD concentrations were quantified in plasma samples of three healthy volunteers receiving a single oral dose of 5 μg. This corresponds to a very low LSD dose, used in LSD microdosing clinical trials (Holze et al., 2021a). The study was conducted in accordance with the Declaration of Helsinki and approved by the Medical Ethics Committee of the Academic Hospital of Maastricht and Maastricht University. The use of LSD in humans was authorized by the Dutch Drug Enforcement Administration. All volunteers provided written informed consent prior to study participation. To establish concentration time profiles, blood samples were collected in lithium heparin coated tubes at the following time points: 0, 0.5, 1, 1.5, 2, 3, 4, 6 after treatment. Blood samples were centrifuged, and plasma was frozen at −20° C. until analysis.
The application of the method was assessed by analyzing the PK of LSD and O-H-LSD in three healthy volunteers treated with an oral dose of 5 μg LSD base (FIG. 5). An oral dose of 5 μg LSD base in ethanol (Holze et al., 2021) was administered to three healthy volunteers. Plasma concentrations of LSD and O-H-LSD were quantified before and up to six hours post-treatment. […] Mean values and the standard deviations are illustrated.
The maximal plasma level of LSD and O-H-LSD was on average 178 pg/ml (SD: 30.6 pg/ml) and 10.4 pg/ml (SD: 2.59 pg/ml), respectively. LSD reached Tmax approximately after 1 hour post-treatment, whereas O-H-LSD peaked after 3 hours. The LSD concentrations measured after a dose of only 5 μg were approximately 7 to 18 times higher than the methods limit of quantification. Thus, the PK of LSD could straightforwardly be established also for very low so-called microdoses (Kuypers et al., 2019). In the case of O-H-LSD, a larger amount of plasma sample was required to determine the plasma concentration time profile after a dose of 5 μg. Three times more plasma was utilized (150 instead of 50 μl), which was extracted as outlined above using however three-fold more acetonitrile for the extraction. Sensitivity was increased by evaporating the extract and reconstituting the residue in a mixture of 150 μl of mobile phase A and mobile phase B (9/1 v/v). […] In future, it will also be considered to inject a larger amount of extract, which is in a first step retained and concentrated on a trapping column. In a second step, the direction of the flow is inverted and so that the sample can be loaded and eluted on the analytical column. This column switching procedure, will increase the sensitivity in the event that the sample can be retained on the trap column. Importantly, the time-consuming solvent evaporation step can thereby be avoided.

[4] = QCHIGH: 1000 pg/ml, 3 F/T cycles
[5] = ULOQ: 10000 pg/ml, 3 F/T cycles
[6] = LLOQ: 10 pg/ml, reinjection after 8 days at −20° C.
[7] = QCHIGH: 1000 pg/ml, reinjection after 8 days at −20° C.
[8] = QCLOW: 25 pg/ml, reinjection after 8 days at −20° C.
[9] = QCMID: 100 pg/ml, reinjection after 8 days at −20° C.
[10] = ULOQ: 10000 pg/ml, reinjection after 8 days at −20° C.

For `CCN(CC)C(=O)[C@@H]1C=C2c3cccc4[nH]cc(c34)C[C@H]2N(C)C1` [LSD, Lysergic acid diethylamide], the “Accuracy, Intra-assay Mean” value ([1]; LLOQ: 10 pg/ml, 3 F/T cycles) was 83.7%, the “Change in concentration [%]” value ([1]; LLOQ: 10 pg/ml) was −8.83% and the Accuracy ([1]; LLOQ: 10 pg/ml, 3 F/T cycles) was 81.9% and 75.0* % and 81.7% and 84.7% and 79.8* % and 81.8% and 88.5%. The “Accuracy, Intra-assay Mean” value ([1]; LLOQ: 10 pg/ml, Baseline) was 91.8%, the Accuracy ([1]; LLOQ: 10 pg/ml, Baseline) was 96.6% and 95.7% and 83.2% and the “Accuracy, Intra-assay Mean” value [1, 4] was 96.5%. The “Change in concentration [%]” value ([1]; QCHIGH: 1000 pg/ml) was 0.647%, the Accuracy [1, 4] was 96.4% and 96.2% (2×) and 96.9% and 96.7% and 94.6% and 98.3% and the “Accuracy, Intra-assay Mean” value ([1]; QCHIGH: 1000 pg/ml, Baseline) was 95.9%. For the same molecule, the Accuracy ([1]; QCHIGH: 1000 pg/ml, Baseline) was 96.9% and 96.4% and 94.3%, the “Accuracy, Intra-assay Mean” value ([1]; QCLOW: 25 pg/ml, 3 F/T cycles) was 96.7% and the “Change in concentration [%]” value ([1]; QCLOW: 25 pg/ml) was 4.44%. For the same molecule, the Accuracy ([1]; QCLOW: 25 pg/ml, 3 F/T cycles) was 95.2% and 102% and 101% and 91.5% and 98.8% and 93.6% and 94.9%, the “Accuracy, Intra-assay Mean” value ([1]; QCLOW: 25 pg/ml, Baseline) was 92.6% and the Accuracy ([1]; QCLOW: 25 pg/ml, Baseline) was 94% and 93.4% and 90.5%. For the same molecule, the “Accuracy, Intra-assay Mean” value ([1]; QCMID: 100 pg/ml, 3 F/T cycles) was 98.5%, the “Change in concentration [%]” value ([1]; QCMID: 100 pg/ml) was 1.03% and the Accuracy ([1]; QCMID: 100 pg/ml, 3 F/T cycles) was 99.2% and 97.9% and 99.5% and 99.6% and 94.9% and 98% and 100%. For the same molecule, the “Accuracy, Intra-assay Mean” value ([1]; QCMID: 100 pg/ml, Baseline) was 97.5%, the Accuracy ([1]; QCMID: 100 pg/ml, Baseline) was 101% and 94.3% and 97.4% and the “Accuracy, Intra-assay Mean” value [1, 5] was 95.7%. For the same molecule, the “Change in concentration [%]” value ([1]; ULOQ: 10000 pg/ml) was −0.9%, the Accuracy [1, 5] was 97.8% and 94.3% and 94% and 96.4% and 99.2% and 93% and 95.2% and the “Accuracy, Intra-assay Mean” value ([1]; ULOQ: 10000 pg/ml, Baseline) was 96.6%. The Accuracy ([1]; ULOQ: 10000 pg/ml, Baseline) was 94.7% and 94.9% and 100%, the “Change in plasma concentration following three freeze/thaw cycles” value ([1]; human plasma QC samples, −20° C., three freeze/thaw cycles, vs freshly processed QC) was at most 8.83% and the Change in concentration ([2]; LLOQ: 10 pg/ml) was 1.09%. For the same molecule, the Change in concentration ([2]; QCHIGH: 1000 pg/ml) was −0.451%, the Change in concentration ([2]; QCLOW: 25 pg/ml) was −0.0195% and the Change in concentration ([2]; QCMID: 100 pg/ml) was 2.3%. For the same molecule, the Change in concentration ([2]; ULOQ: 10000 pg/ml) was 0.383%, the “Change in concentration [%]” value ([2]; LLOQ: 10 pg/ml) was −1.26% and the “Accuracy, Intra-assay Mean” value ([2]; LLOQ: 10 pg/ml, Baseline) was 96.6%. For the same molecule, the Accuracy ([2]; LLOQ: 10 pg/ml, Baseline) was 92.5% and 95% and 76.3* % and 91.3% and 98% and 109% and 93.7%, the “Accuracy, Intra-assay Mean” value [2, 6] was 95.4% and the Accuracy [2, 6] was 104% and 97.5% and 86% and 95.3% and 100% and 94.7% and 90.3%. The “Change in concentration [%]” value ([2]; QCHIGH: 1000 pg/ml) was −0.333%, the “Accuracy, Intra-assay Mean” value ([2]; QCHIGH: 1000 pg/ml, Baseline) was 100% and the Accuracy ([2]; QCHIGH: 1000 pg/ml, Baseline) was 96.5% and 99.5% and 97.7% and 101% (3×) and 103%. For the same molecule, the “Accuracy, Intra-assay Mean” value [2, 7] was 99.7%, the Accuracy [2, 7] was 101% (2×) and 98.8% and 98.9% and 99.9% and 99.1% and 99.6% and the “Change in concentration [%]” value ([2]; QCLOW: 25 pg/ml) was −0.948%. The “Accuracy, Intra-assay Mean” value ([2]; QCLOW: 25 pg/ml, Baseline) was 101%, the Accuracy ([2]; QCLOW: 25 pg/ml, Baseline) was 101% (2×) and 104% and 97.9% and 102% and 103% and 99.5% and the “Accuracy, Intra-assay Mean” value [2, 8] was 100%. For the same molecule, the Accuracy [2, 8] was 95.5% and 102% and 107% and 96.4% and 106% and 92% and 103%, the “Change in concentration [%]” value ([2]; QCMID: 100 pg/ml) was 1.02% and the “Accuracy, Intra-assay Mean” value ([2]; QCMID: 100 pg/ml, Baseline) was 101%. For the same molecule, the Accuracy ([2]; QCMID: 100 pg/ml, Baseline) was 101% (4×) and 102% and 96.6% and 107%, the “Accuracy, Intra-assay Mean” value [2, 9] was 102% and the Accuracy [2, 9] was 101% and 103% (2×) and 102% (2×) and 99.9% and 105%. The “Change in concentration [%]” value ([2]; ULOQ: 10000 pg/ml) was −1.85%, the “Accuracy, Intra-assay Mean” value ([2]; ULOQ: 10000 pg/ml, Baseline) was 97.2% and the Accuracy ([2]; ULOQ: 10000 pg/ml, Baseline) was 97.9% and 97.3% and 98.1% and 96.5% and 97.1% and 98.7% and 95%. For the same molecule, the “Accuracy, Intra-assay Mean” value [2, 10] was 95.4%, the Accuracy [2, 10] was 97.4% and 96.6% and 95.2% and 92.9% and 95.1% and 96.4% and 94.2% and the “Deviations of the means of the QCs of the two runs (reinjection) after 8 days at −20° C.” value ([2]; worked-up human plasma samples, 8 days at −20° C.) was −1.85% to +1.02. For the same molecule, the “Deviations of the means of the QCs of the two runs (reinjection) after overnight storage at 10° C.” value ([2]; worked-up human plasma samples, overnight at 10° C. in the autosampler) was −0.451% to +2.3, the Tmax ([3]; human, 5 ug, single oral dose of 5 μg LSD base, read-out: Tmax (time of peak plasma level post-treatment)) was about 1 h and the “maximal plasma level (average)” value ([3]; single oral dose of 5 μg LSD base in ethanol, LC-MS/MS, O-H-LSD measured as metabolite using 150 μl plasma) was 178 pg/mL.
